Entries after “also recorded” stand apart in the source; their conditions may differ. Read-outs that look alike come from different tables or passages of the source.
What was measured:
[1] = tested on: human iPSC-derived 3D BrainSpheres; test: BrainSphere MEA assay (HD-MEA, 13-day exposure, concentration-response); assay type: cell-based; conditions: for EC (benchmark response 1.349 SD): 312 h; as to hitc Mean.Spheroid.Burst.Duration: key: 1 (active); 0 (inactive); as to hitc Mean.Spheroid.Burst.ISI: key: 1 (active); 0 (inactive); as to hitc Mean.Spheroid.Burst.Peak.Firing.Rate: key: 1 (active); 0 (inactive); as to hitc Mean.Spheroid.Firing.Rate: key: 1 (active); 0 (inactive); as to hitc Mean.Spheroid.IBI: key: 1 (active); 0 (inactive); as to hitc Mean.Spheroid.Nonburst.ISI: key: 1 (active); 0 (inactive); as to hitc Mean.Spheroid.Spikes.per.Burst.per.Electrode: key: 1 (active); 0 (inactive); as to hitc Mean.Spheroid.Spikes.per.Burst: key: 1 (active); 0 (inactive); as to hitc Spheroid.Burst.Frequency: key: 1 (active); 0 (inactive); as to hitc Spheroid.Spike.Amplitude.90th.Percentile: key: 1 (active); 0 (inactive)
Method: A volume of 1 ml of Tergazyme (1% solution in deionized water) was added to each well of the MaxTwo 6-Well Plate (MaxWell Biosystems) and incubated overnight under constant gyratory shaking (88 RPM) at 37 °C and 5% CO2. The next day, Tergazyme solution was removed, and plates were washed with distilled water and ethanol. After remaining ethanol was evaporated, wells were washed with PBS. Then, 200 µl of Poly-D-Lysine (Gibco, A38904 - 01) was added on top of the electrodes and incubated at 37 °C and 5% CO2 for 3 h (humidified). Poly-D-Lysine was then removed, and wells were coated with 100 µl of 0.1 mg/ml laminin coating solution (Sigma-Aldrich, L2020 - 1 mg) and incubated for 2 h at 37 ℃ and 5% CO2 (humidified). The laminin was removed after incubation. Using a 1 ml micropipette, 1 ml of medium containing BrainSpheres (7 weeks differentiated), approximately 25 BrainSpheres per ml, was plated on top of the HD-MEA chip (Fig. 1A). Afterwards, the plate was placed in an incubator at 37 °C and 5% CO2 and moved in circles to accumulate the BrainSpheres on top of the electrode area (Fig. 1A). The plate was kept in an incubator (humidified) for 2 days to allow attachment of the BrainSpheres with no gyratory shaking of the plates.
The MaxTwo high-density microelectrode array system (MaxWell Biosystems AG, Zurich, Switzerland) was used to measure neural activity with MaxTwo 6-well plates, where every well includes an integrated chip with 26,400 platinum electrodes arranged in an area of 3.85 × 2.10 mm^2 ([…]) (Muller et al. [2015]). The data were recorded and analyzed with the MaxLab Live Software (version 22.2.22). First, the MaxLab live ActivityScan Assay was used to identify the activity and positioning of the BrainSpheres on the array by scanning all the 26,400 electrodes in 29 configurations in a well (Assay Parameters: Configuration = Full; Recording time per configuration = 60 s (s)). The settings gain = 512, high-pass-filter (HPF): ~ 1 Hz and spike threshold = 5 X root-mean square (RMS) noise were used for all HD-MEA recordings. Circular regions of interest (ROI) were manually selected in the Activity Map where neuronal activity was apparent by an increased activity (Fig. 2). Over the course of the 13-day experiment, the same selected regions and electrodes were measured using the MaxLab Live Network Assay (600 s recording time).
A custom analysis framework was used to extract the MaxLab Live neuronal metrics for the individual BrainSpheres. For this, electrodes comprising a single ROI (i.e., individual BrainSphere; Fig. 2D) were grouped using distance-based clustering (fcluster method of Scipy library, Python 3.7) and neural metrics were calculated for the clustered electrodes for every ROI separately. Figure 2E presents a raster plot illustrating the activity associated with individual Regions of Interest (ROIs). […] Ten MaxLab Live neural metrics (endpoints) were evaluated from the MaxLab live ActivityScan and Network Assay in this study. See Table 3 for the endpoint definitions, tuned parameters, and activity type (general versus network connectivity).
The BrainSphere MEA assay measured changes in neural activity during a 13-day chemical exposure. The first recording day of the concentration–response screening protocol (day of exposure (DOE) 0) occurred after 7 weeks of BrainSphere differentiation, 48 h after plating on HD-MEA plates (Fig. 1B). The study included at least three biological replicates (one well per plate) from separate experiments (e.g., three different plates on three different days) and each well included multiple BrainSpheres which were considered technical replicates.

2D rat cortical cultures = conditions: cytotoxicity LDH, cited from earlier work; for hitc CCTE_Shafer_MEA_dev_LDH: rNFA mc5 hit call
[2] = Homo sapiens, read-out: BMD Mean.Spheroid.Burst.ISI
[3] = Homo sapiens, read-out: BMD Mean.Spheroid.Nonburst.ISI
[4] = Homo sapiens, read-out: ac50 Mean.Spheroid.Burst.Duration
[5] = Homo sapiens, read-out: ac50 Mean.Spheroid.Burst.ISI
[6] = Homo sapiens, read-out: ac50 Mean.Spheroid.Burst.Peak.Firing.Rate
[7] = Homo sapiens, read-out: ac50 Mean.Spheroid.IBI
[8] = Homo sapiens, read-out: ac50 Mean.Spheroid.Spikes.per.Burst
[9] = Homo sapiens, read-out: ac50 Mean.Spheroid.Spikes.per.Burst.per.Electrode
[10] = Homo sapiens, read-out: ac50 Spheroid.Spike.Amplitude.90th.Percentile
[11] = AUC over 13-day exposure, tcplfit2
[12] = tcplfit2 BMD at benchmark response (1.349*SD of baseline controls)
[13] = tcplfit2 output ACC, activity cutoff in Supplemental Table 1
[14] = top of winning model, response normalized as percent of vehicle control, negative = decrease

CC1(C)S[C@@H]2[C@H](NC(=O)[C@H](N)c3ccc(O)cc3)C(=O)N2[C@H]1C(=O)O [Amoxicillin]
BMD Spheroid.Burst.Frequency [1]: 448 µM
Bioactivity across the 10 MEA endpoints of the BrainSphere MEA assay (in words) [1]: inactive across all metrics; also recorded: inactivity across all metrics in both models
Hits [1]: 0
Percent active [1]: 0%
hitc Mean.Spheroid.Burst.Duration [1]: 0
hitc Mean.Spheroid.Burst.ISI [1]: 0
hitc Mean.Spheroid.Burst.Peak.Firing.Rate [1]: 0
hitc Mean.Spheroid.Firing.Rate [1]: 0
hitc Mean.Spheroid.IBI [1]: 0
hitc Mean.Spheroid.Nonburst.ISI [1]: 0
hitc Mean.Spheroid.Spikes.per.Burst [1]: 0
hitc Mean.Spheroid.Spikes.per.Burst.per.Electrode [1]: 0
hitc Spheroid.Burst.Frequency [1]: 0
hitc Spheroid.Spike.Amplitude.90th.Percentile [1]: 0
EC (benchmark response 1.349 SD) [1, 2]: 1440 µM
EC (benchmark response 1.349 SD) [1, 3]: 620 µM
AC50 [1, 4]: 0.22 µM
AC50 [1, 5]: 45 µM
AC50 [1, 6]: 0.029 µM
AC50 [1, 7]: 0.063 µM
AC50 [1, 8]: 0.01 µM
AC50 [1, 9]: 0.036 µM
AC50 [1, 10]: 0.13 µM
hitc CCTE_Shafer_MEA_dev_LDH (2D rat cortical cultures): 0

CC(=O)Nc1ccc(O)cc1 [Acetaminophen]
Bioactivity across the 10 MEA endpoints of the BrainSphere MEA assay (in words) [1]: inactive in both assays; also recorded: inactive across all endpoints; also recorded: inactivity across all metrics in both models
Bioactivity trend over time for MFR, mean spike amplitude and burst frequency (qualitative) [1]: no clear chemical-dependent effects were observed
Hits [1]: 0
Percent active [1]: 0%
hitc Mean.Spheroid.Burst.Duration [1]: 0
hitc Mean.Spheroid.Burst.ISI [1]: 0
hitc Mean.Spheroid.Burst.Peak.Firing.Rate [1]: 0
hitc Mean.Spheroid.Firing.Rate [1]: 0
hitc Mean.Spheroid.IBI [1]: 0
hitc Mean.Spheroid.Nonburst.ISI [1]: 0
hitc Mean.Spheroid.Spikes.per.Burst [1]: 0
hitc Mean.Spheroid.Spikes.per.Burst.per.Electrode [1]: 0
hitc Spheroid.Burst.Frequency [1]: 0
hitc Spheroid.Spike.Amplitude.90th.Percentile [1]: 0
EC (benchmark response 1.349 SD) [1, 2]: 415 µM
EC (benchmark response 1.349 SD) [1, 3]: 163 µM
AC50 [1, 4]: 4.7 µM
AC50 [1, 5]: 45 µM
AC50 [1, 6]: 0.37 µM
AC50 [1, 7]: 1.8 µM
AC50 [1, 8]: 6 µM
AC50 [1, 9]: 0.39 µM
AC50 ([1]; Homo sapiens, read-out: ac50 Spheroid.Burst.Frequency): 0.61 µM
AC50 [1, 10]: 0.24 µM
hitc CCTE_Shafer_MEA_dev_LDH (2D rat cortical cultures): 0

[CH3][Hg][Cl] [Methylmercury]
EC50 ([1]; 5th percentile across active AC50 values per chemical, read-out: Minimum potency): 2.41 µM
Difference of minimum potency between BrainSphere MEA assay and rNFA ([1]; 5th percentile of AC50 values by chemical, above 0.5 = more potent in the rNFA): more than 0.5 log10 µM
hitc Mean.Spheroid.Burst.Duration [1, 11]: 1
hitc Mean.Spheroid.Burst.ISI [1, 11]: 1
hitc Mean.Spheroid.Burst.Peak.Firing.Rate [1, 11]: 1
hitc Mean.Spheroid.Firing.Rate [1, 11]: 1
hitc Mean.Spheroid.IBI [1, 11]: 1
hitc Mean.Spheroid.Nonburst.ISI [1, 11]: 1
hitc Mean.Spheroid.Spikes.per.Burst [1, 11]: 1
hitc Mean.Spheroid.Spikes.per.Burst.per.Electrode [1, 11]: 1
hitc Spheroid.Burst.Frequency [1, 11]: 1
hitc Spheroid.Spike.Amplitude.90th.Percentile [1, 11]: 1
Bioactivity trend over time for MFR, mean spike amplitude and burst frequency (qualitative) ([1]; DOE 0-13, highest tested concentrations, Fig. 3): appeared to decrease activity
AC50 ([1]; concentration at 50% maximal activity, Supplement 3 prints it also for curves with hit call 0, listed as Methylmercuric(II) chloride, read-out: ac50 Mean.Spheroid.Burst.Duration): 5.9 µM
AC50 ([1]; concentration at 50% maximal activity, Supplement 3 prints it also for curves with hit call 0, listed as Methylmercuric(II) chloride, read-out: ac50 Mean.Spheroid.Burst.ISI): 3.3 µM
AC50 ([1]; concentration at 50% maximal activity, Supplement 3 prints it also for curves with hit call 0, listed as Methylmercuric(II) chloride, read-out: ac50 Mean.Spheroid.Burst.Peak.Firing.Rate): 3 µM
AC50 ([1]; concentration at 50% maximal activity, Supplement 3 prints it also for curves with hit call 0, listed as Methylmercuric(II) chloride, read-out: ac50 Mean.Spheroid.Firing.Rate): 7.7 µM
AC50 ([1]; concentration at 50% maximal activity, Supplement 3 prints it also for curves with hit call 0, listed as Methylmercuric(II) chloride, read-out: ac50 Mean.Spheroid.IBI): 6.3 µM
AC50 ([1]; concentration at 50% maximal activity, Supplement 3 prints it also for curves with hit call 0, listed as Methylmercuric(II) chloride, read-out: ac50 Mean.Spheroid.Nonburst.ISI): 2.6 µM
AC50 ([1]; concentration at 50% maximal activity, Supplement 3 prints it also for curves with hit call 0, listed as Methylmercuric(II) chloride, read-out: ac50 Mean.Spheroid.Spikes.per.Burst): 7.9 µM
AC50 ([1]; concentration at 50% maximal activity, Supplement 3 prints it also for curves with hit call 0, listed as Methylmercuric(II) chloride, read-out: ac50 Mean.Spheroid.Spikes.per.Burst.per.Electrode): 6.5 µM
AC50 ([1]; concentration at 50% maximal activity, Supplement 3 prints it also for curves with hit call 0, listed as Methylmercuric(II) chloride, read-out: ac50 Spheroid.Burst.Frequency): 2.3 µM
AC50 ([1]; concentration at 50% maximal activity, Supplement 3 prints it also for curves with hit call 0, listed as Methylmercuric(II) chloride, read-out: ac50 Spheroid.Spike.Amplitude.90th.Percentile): 16 µM
AC50 ([1]; concentration at 50% maximal activity, Supplement 3 prints it also for curves with hit call 0, read-out: ac50 Mean.Spheroid.Burst.Duration): 5.91 µM
AC50 ([1]; concentration at 50% maximal activity, Supplement 3 prints it also for curves with hit call 0, read-out: ac50 Mean.Spheroid.Burst.ISI): 3.34 µM
AC50 ([1]; concentration at 50% maximal activity, Supplement 3 prints it also for curves with hit call 0, read-out: ac50 Mean.Spheroid.Burst.Peak.Firing.Rate): 3.02 µM
AC50 ([1]; concentration at 50% maximal activity, Supplement 3 prints it also for curves with hit call 0, read-out: ac50 Mean.Spheroid.Firing.Rate): 7.68 µM
AC50 ([1]; concentration at 50% maximal activity, Supplement 3 prints it also for curves with hit call 0, read-out: ac50 Mean.Spheroid.IBI): 6.32 µM
AC50 ([1]; concentration at 50% maximal activity, Supplement 3 prints it also for curves with hit call 0, read-out: ac50 Mean.Spheroid.Nonburst.ISI): 2.56 µM
AC50 ([1]; concentration at 50% maximal activity, Supplement 3 prints it also for curves with hit call 0, read-out: ac50 Mean.Spheroid.Spikes.per.Burst): 7.9 µM
AC50 ([1]; concentration at 50% maximal activity, Supplement 3 prints it also for curves with hit call 0, read-out: ac50 Mean.Spheroid.Spikes.per.Burst.per.Electrode): 6.46 µM
AC50 ([1]; concentration at 50% maximal activity, Supplement 3 prints it also for curves with hit call 0, read-out: ac50 Spheroid.Burst.Frequency): 2.29 µM
AC50 ([1]; concentration at 50% maximal activity, Supplement 3 prints it also for curves with hit call 0, read-out: ac50 Spheroid.Spike.Amplitude.90th.Percentile): 16 µM
EC50 ([1]; mean across active AC50 values per chemical, read-out: Mean potency): 6.15 µM
Percent active ([1]; metrics active out of the total number of metrics screened): 100%
BMD Mean.Spheroid.Burst.Duration [1, 12]: 5.5 µM
BMD Mean.Spheroid.Burst.ISI [1, 12]: 2.3 µM
BMD Mean.Spheroid.Burst.Peak.Firing.Rate [1, 12]: 2.6 µM
BMD Mean.Spheroid.Firing.Rate [1, 12]: 7.8 µM
BMD Mean.Spheroid.IBI [1, 12]: 5.9 µM
BMD Mean.Spheroid.Nonburst.ISI [1, 12]: 1.8 µM
BMD Mean.Spheroid.Spikes.per.Burst [1, 12]: 7.7 µM
BMD Mean.Spheroid.Spikes.per.Burst.per.Electrode [1, 12]: 6.2 µM
BMD Spheroid.Burst.Frequency [1, 12]: 2.4 µM
BMD Spheroid.Spike.Amplitude.90th.Percentile [1, 12]: 5.1 µM
ACC Mean.Spheroid.Burst.Duration [1, 13]: 5.4 µM
ACC Mean.Spheroid.Burst.ISI [1, 13]: 1.7 µM
ACC Mean.Spheroid.Burst.Peak.Firing.Rate [1, 13]: 2.5 µM
ACC Mean.Spheroid.Firing.Rate [1, 13]: 8.2 µM
ACC Mean.Spheroid.IBI [1, 13]: 6.3 µM
ACC Mean.Spheroid.Nonburst.ISI [1, 13]: 2.2 µM
ACC Mean.Spheroid.Spikes.per.Burst [1, 13]: 8 µM
ACC Mean.Spheroid.Spikes.per.Burst.per.Electrode [1, 13]: 6.4 µM
ACC Spheroid.Burst.Frequency [1, 13]: 2 µM
ACC Spheroid.Spike.Amplitude.90th.Percentile [1, 13]: 10 µM
Top Mean.Spheroid.Burst.Duration [1, 14]: −97
Top Mean.Spheroid.Burst.ISI [1, 14]: −99
Top Mean.Spheroid.Burst.Peak.Firing.Rate [1, 14]: −95
Top Mean.Spheroid.Firing.Rate [1, 14]: −88
Top Mean.Spheroid.IBI [1, 14]: −94
Top Mean.Spheroid.Nonburst.ISI [1, 14]: −100
Top Mean.Spheroid.Spikes.per.Burst [1, 14]: −100
Top Mean.Spheroid.Spikes.per.Burst.per.Electrode [1, 14]: −95
Top Spheroid.Burst.Frequency [1, 14]: −100
Top Spheroid.Spike.Amplitude.90th.Percentile [1, 14]: −21
Hits ([1]; total number of active endpoints out of 10 MEA activity metrics, 13-day exposure): 10
hitc CCTE_Shafer_MEA_dev_LDH (2D rat cortical cultures): 1
AC50 (2D rat cortical cultures; read-out: ac50 CCTE_Shafer_MEA_dev_LDH, rNFA mc5): 0.182 µM

From publication PMC12198282, “Application of a high-density microelectrode array assay using a 3D human iPSC-derived brain microphysiological system model for in vitro neurotoxicity screening of environmental compounds” (Archives of Toxicology, 2025)
